# From PubChem BioAssay AID1963436 (Molecular Pharmacology Branch, DTP, NCI, 2024)
# System: OVCAR-5 complex spheroid (HUVEC/MSC), viability % T/C
# Assay: Anticancer human tumor OVCAR-5 cell line growth inhibition [Asc];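 further: spheroids exposed to agents for 7 days before readout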;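 on viability, T/C: 100% = DMSO vehicle-treated wells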
# Conditions: for IC50: curve of first compound; for viability, T/C: stronger effect = lower value
# Method in brief: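 Concentration series start at each agent's clinical Cmax, or at 10 microM when none is established, and drop in half-log steps; agents are applied alone or together to complex spheroids built with HUVEC and hMSC.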
smiles,measurement,setting,value
NC(=O)C(=Cn1cnc(-c2cc(C(F)(F)F)cc(C(F)(F)F)c2)n1)c1cncnc1 + CNC(C)C(=O)NC1CN(S(=O)(=O)c2cccc(S(=O)(=O)N3CCC4CCC(C(=O)NC(c5ccccc5)c5ccccc5)N4C(=O)C(NC(=O)C(C)NC)C3)c2)CCC2CCC(C(=O)NC(c3ccccc3)c3ccccc3)N2C1=O,IC50,second compound 0.01 µM,222 nM
same,IC50,second compound 0.0316 µM,147 nM
same,IC50,second compound 0.1 µM,135 nM
same,IC50,second compound 0.316 µM,141 nM
same,IC50,second compound 1 µM,124 nM
same,"viability, T/C","second compound 0.01 µM, first compound 0.000949 µM",95.4%
same,"viability, T/C","second compound 0.01 µM, first compound 0.003 µM",95.5%
same,"viability, T/C","second compound 0.01 µM, first compound 0.00949 µM",91.4%
same,"viability, T/C","second compound 0.01 µM, first compound 0.03 µM",76.5%
same,"viability, T/C","second compound 0.01 µM, first compound 0.0949 µM",63%
same,"viability, T/C","second compound 0.01 µM, first compound 0.3 µM",45.5%
same,"viability, T/C","second compound 0.0316 µM, first compound 0.000949 µM",96%
same,"viability, T/C","second compound 0.0316 µM, first compound 0.003 µM",89.2%
same,"viability, T/C","second compound 0.0316 µM, first compound 0.00949 µM",73.3%
same,"viability, T/C","second compound 0.0316 µM, first compound 0.03 µM",67.7%
same,"viability, T/C","second compound 0.0316 µM, first compound 0.0949 µM",60%
same,"viability, T/C","second compound 0.0316 µM, first compound 0.3 µM",39%
same,"viability, T/C","second compound 0.1 µM, first compound 0.000949 µM",86.6%
same,"viability, T/C","second compound 0.1 µM, first compound 0.003 µM",89.9%
same,"viability, T/C","second compound 0.1 µM, first compound 0.00949 µM",77.4%
same,"viability, T/C","second compound 0.1 µM, first compound 0.03 µM",66.3%
same,"viability, T/C","second compound 0.1 µM, first compound 0.0949 µM",57.2%
same,"viability, T/C","second compound 0.1 µM, first compound 0.3 µM",38%
same,"viability, T/C","second compound 0.316 µM, first compound 0.000949 µM",82.2%
same,"viability, T/C","second compound 0.316 µM, first compound 0.003 µM",84.1%
same,"viability, T/C","second compound 0.316 µM, first compound 0.00949 µM",69.4%
same,"viability, T/C","second compound 0.316 µM, first compound 0.03 µM",66.7%
same,"viability, T/C","second compound 0.316 µM, first compound 0.0949 µM",60%
same,"viability, T/C","second compound 0.316 µM, first compound 0.3 µM",37%
same,"viability, T/C","second compound 1 µM, first compound 0.000949 µM",85.7%
same,"viability, T/C","second compound 1 µM, first compound 0.003 µM",82.8%
same,"viability, T/C","second compound 1 µM, first compound 0.00949 µM",79.8%
same,"viability, T/C","second compound 1 µM, first compound 0.03 µM",70.6%
same,"viability, T/C","second compound 1 µM, first compound 0.0949 µM",54.9%
same,"viability, T/C","second compound 1 µM, first compound 0.3 µM",33.4%
O=C(c1cc(Cc2n[nH]c(=O)c3ccccc23)ccc1F)N1CCN(C(=O)C2CC2)CC1 + CNC(C)C(=O)NC1CN(S(=O)(=O)c2cccc(S(=O)(=O)N3CCC4CCC(C(=O)NC(c5ccccc5)c5ccccc5)N4C(=O)C(NC(=O)C(C)NC)C3)c2)CCC2CCC(C(=O)NC(c3ccccc3)c3ccccc3)N2C1=O,IC50,second compound 0.01 µM,> 10000 nM
same,IC50,second compound 0.0316 µM,> 10000 nM
same,IC50,second compound 0.1 µM,> 10000 nM
same,IC50,second compound 0.316 µM,> 10000 nM
same,IC50,second compound 1 µM,> 10000 nM
same,"viability, T/C","second compound 0.01 µM, first compound 0.0316 µM",97.3%
same,"viability, T/C","second compound 0.01 µM, first compound 0.1 µM",95.8%
same,"viability, T/C","second compound 0.01 µM, first compound 0.316 µM",87.1%
same,"viability, T/C","second compound 0.01 µM, first compound 1 µM",96.2%
same,"viability, T/C","second compound 0.01 µM, first compound 3.16 µM",80.5%
same,"viability, T/C","second compound 0.01 µM, first compound 10 µM",70.3%
same,"viability, T/C","second compound 0.0316 µM, first compound 0.0316 µM",81.4%
same,"viability, T/C","second compound 0.0316 µM, first compound 0.1 µM",88.3%
same,"viability, T/C","second compound 0.0316 µM, first compound 0.316 µM",81.7%
same,"viability, T/C","second compound 0.0316 µM, first compound 1 µM",74.6%
same,"viability, T/C","second compound 0.0316 µM, first compound 3.16 µM",77.9%
same,"viability, T/C","second compound 0.0316 µM, first compound 10 µM",67.9%
same,"viability, T/C","second compound 0.1 µM, first compound 0.0316 µM",84.9%
same,"viability, T/C","second compound 0.1 µM, first compound 0.1 µM",95.6%
same,"viability, T/C","second compound 0.1 µM, first compound 0.316 µM",77.9%
same,"viability, T/C","second compound 0.1 µM, first compound 1 µM",74.8%
same,"viability, T/C","second compound 0.1 µM, first compound 3.16 µM",75.1%
same,"viability, T/C","second compound 0.1 µM, first compound 10 µM",55.5%
same,"viability, T/C","second compound 0.316 µM, first compound 0.0316 µM",77.4%
same,"viability, T/C","second compound 0.316 µM, first compound 0.1 µM",75.5%
same,"viability, T/C","second compound 0.316 µM, first compound 0.316 µM",80.7%
same,"viability, T/C","second compound 0.316 µM, first compound 1 µM",75.5%
same,"viability, T/C","second compound 0.316 µM, first compound 3.16 µM",67.2%
same,"viability, T/C","second compound 0.316 µM, first compound 10 µM",62%
same,"viability, T/C","second compound 1 µM, first compound 0.0316 µM",83.5%
same,"viability, T/C","second compound 1 µM, first compound 0.1 µM",76.1%
same,"viability, T/C","second compound 1 µM, first compound 0.316 µM",88.9%
same,"viability, T/C","second compound 1 µM, first compound 1 µM",73.8%
same,"viability, T/C","second compound 1 µM, first compound 3.16 µM",65.3%
same,"viability, T/C","second compound 1 µM, first compound 10 µM",55.9%
